The subject of data set [1] is WT T cells. The data set is described as follows: 6TG IC50, T cell viability. As to conditions: FIG. 27. Type of data set: cell-based. The procedure: (§1) Such inactivation confers 6TG resistance that contrasts with the sensitivity of WT T cells to this drug. IC50 can be approximately determined to 10 nM and >100 μM for WT and HPRT KO T cells respectively.
The subject of a further data set is HPRT KO T cells. Briefly: 6TG IC50, T cell viability. The class given is cell-based. As to conditions: FIG. 27. Here is the method: as §1
The test system of another data set is dCK KO Daudi cells. The data set is described as follows: Growth of Daudi cells in media with clofarabine. Type of data set: cell-based. The settings on record: up to 1 μM clofarabine, FIG. 19. Here is the method:
(§2) FIG. 19 represents the growth rate (expressed in ×10^6 cells) for a period of 7 days of KO dCK Daudi cells versus WT Daudi cells in the absence or presence of increasing amounts of clofarabine (0.1 to 1 μM);
(§3) Daudi cells were cultured in media having different concentrations of clofarabine (0; 0.1; 0.25; 0.5 and 1 μM) for several days and counted at each passage.

The next data set deals with WT Daudi cells. The data set is described as follows: Growth of Daudi cells in media with clofarabine. The class given is cell-based. The settings on record: clofarabine 0.1 to 1 μM, FIG. 19. The procedure:
as §2, §3

The subject of data set [2] is CAR T cells negative control. Briefly: Sensitivity of CAR T cells to clofarabine and fludarabine (cell viability). The class given is cell-based.
Protocol: (§7) These graphs allows determination of IC50 for both drugs clofarabine and fludarabine;
(§8) T cells were grown with or without clofarabine between D3 and D8 (see workflow 2 in FIG. 9), then they were incubated for 2 days (from D15 to D17) in media with different concentrations of clofarabine. T cells viability was then assessed by FACS analysis using the count bright kit.
(§9) These cells were then used to determined their sensitivity for clofarabine and fludarabine as performed before.
The next data set relates to dCK/TRAC KO CAR T cells. Described as above. The class given is cell-based.
Data set [3] concerns WT T cells. The data set is described as follows: Clofarabine IC50, T cell viability by FACS. The class given is cell-based. The settings on record: 48 h, 2 days incubation with clofarabine 0 to 10 μM, FIG. 8, read-out: IC50 (amount of drug to decrease cell viability to 50%). Here is the method: (§4) FIG. 8 represents the percentage of cell viability of WT and dCK KO T cells (treated with 5 μg or 10 μg of mRNA encoding dCK2 TALE-nuclease pair) cultured for two days in the presence of increasing amount of clofarabine (10 nM to 10 μM). This graph allows to determine the Clofarabine IC50 toward both cell populations;
(§5) To further investigate the ability of T cells to resist to clofarabine, IC50 for this drug was determined on dCK KO and WT T cells. The cells were collected 3 days after transfection were incubated for 2 days in the presence of increasing concentration of clofarabine (0 to 10 μM). At the end of clofarabine incubation, viability of T cells was determined by FACS analysis2.
(§6) The results presented in FIG. 8 show clearly that the processing of dCK gene mediated by TALE-nucleases efficiently inactivates dCK activity in T cells. Such inactivation correlates to clofarabine resistance, contrasting with the sensitivity of WT T cells. The IC50 values (amount of drug to add in the media to decrease cell viability to 50%) correspond respectively to about 100 nM and 10 μM for WT and dCK KO T cells.
For orientation: In flow cytometry, cells or beads pass a laser one at a time.

Another data set concerns dCK KO T cells. Briefly: Clofarabine IC50, T cell viability by FACS. The class given is cell-based. The settings on record: 48 h, 2 days incubation with clofarabine 0 to 10 μM, FIG. 8, read-out: IC50 (amount of drug to decrease cell viability to 50%). The procedure: as §4, §5, §6
For data set [4], the system named is double KO dCK/TCAR CAR T-cells. Briefly: Growth rate of double KO CAR T-cells in the presence of clofarabine. Type of data set: cell-based. The settings on record: 11 days, clofarabine 0.1 μM to 10 μM, FIG. 14. Here is the method:
This experiment was performed on double KO dCK/TCAR T CAR T-cells (FMC63 which is described in patent application having the filing number PCT/EP2014/059662.) by culturing these cells during 11 days in media having different clofarabine (from 0.1 μM to 10 μM).

The conditions of data set [5]: clinically relevant dose for ALL treatment, reported by EMA; cited from earlier work.

We go through 3 molecules from US10813951B2, “Method of engineering chemotherapy drug resistant T-cells for immunotherapy” (CELLECTIS, priority 2013, dated 2020).

pIC50: −log10 of the molar value. Read-outs that look alike come from different tables or passages of the source.

Protocol for dCK/TRAC KO CAR T cells: as §7, §8, §9

As to `Nc1nc2nc[nH]c2c(=S)[nH]1` [6TG, 6-thioguanine], the pIC50 (usually the negative decadic logarithm of the IC50, by convention in mol/L) is approximately 8.00 in the data set on WT T cells [1] and less than 4.00 in the data set on HPRT KO T cells.

With `Nc1nc(Cl)nc2c1ncn2[C@@H]1O[C@H](CO)[C@@H](O)[C@@H]1F` [clofarabine], the “growth of cells in presence of clofarabine” value with dCK KO Daudi cells is “able to grow”; in the data set with WT Daudi cells, “clearly impaired”. In addition, the pIC50 in data set [2] (CAR T cells negative control, FIG. 17, read-out: IC50 clofarabine) was 10.00; with dCK/TRAC KO CAR T cells (dCK/TRAC KO CAR T cells (FMC63), FIG. 17, read-out: IC50 clofarabine), 6.30; with WT T cells [3], approximately 7.00; in the data set on dCK KO T cells, approximately 5.00. Also, the “cell expansion in presence of clofarabine” value in data set [4] is given as “correct up to the 1 μM”. For the same molecule, in [5], the Cmax (usually the highest concentration seen after dosing) is 1000 nM.

Regarding `Nc1nc(F)nc2c1ncn2[C@@H]1O[C@H](CO)[C@@H](O)[C@@H]1O` [fludarabine], the negative logarithm of the IC50 (pIC50) in [2] (T CAR control, FIG. 17, read-out: IC50 fludarabine) is 5.00; with dCK/TRAC KO CAR T cells (double KO CAR T cells, FIG. 17, read-out: IC50 fludarabine), 3.40.
